From patent US9963434B2, “N-arylmethyl sulfonamide negative modulators of NR2A” (LUC THERAPEUTICS, priority 2013, dated 2018) come the findings set out here.

Like-named read-outs stand apart in the source and are kept apart here.

This test addresses NR1/NR2A (Homo sapiens (Human), UniProt Q05586+Q12879). Nature of the test: FDSS Ca2+ influx inhibition assay in HEK293 cells expressing NR1/NR2A. Format: cell-based. The note with it: 3 μM glutamate, 3 μM glycine, 1 mM Ca2+. On the procedure:
Cell Culture and plating: HEK293 cells expressing NR1/NR2A (Chantest, Cleveland, Ohio) were grown to 70-80% confluency as an adherent monolayer in standard tissue culture flasks at 37° C., 5% CO2 per supplier's instructions.
After induction, cell culture medium was removed and cells were rinsed once with Ca^2+ and Mg^2+-free Dulbecco's phosphate buffered saline. Cells were then removed from the flask using TrypLE™ Express (Life Technologies) according to the manufacturer's instructions and collected to 50 ml centrifuge tubes. Following two washes in Ca^2+/Mg^2+-free HBSS with 20 mM HEPES (HHnoCa), cells were counted and viability assessed using trypan blue. To load cells with Ca^2+-sensitive dye, they were resuspended in fluo-8 plus Component B (AAT Bioquest Products) diluted in HHnoCa and incubated 15 minutes at 37° C., followed by 30 minutes at room temp (in dark). Cells were then washed and resuspended in HHnoCa to remove extracellular dye and plated in 384-well plates (Falcon, uncoated) at 20,000-30,000 cells/well in a final volume of 25 μL/well.
FDSS Assay: To each well of the plate, 10 μL test compound, control (MK801) or HHnoCa buffer was added to a final concentration of 10 μM with a final concentration of DMSO of 0.1%. Following 10 minutes pre-incubation in the dark, plates are loaded onto the Hamamatsu FDSS 6000. After collecting baseline fluorescence images, 3 μM glutamate, 3 μM glycine, and 1 mM Ca^2+ in HHnoCa buffer is added to each well, and Ca^2+ is recorded for 3 minutes. Data were processed by computing ratio of fluorescence at the end of data collection to baseline fluorescence to assess degree of Ca^2+ influx inhibition relative to that observed in MK801.

The mark [1] stands for this setting: inhibition relative to MK801, read-out: NR2A IC50.

Sequence of NR1/NR2A (Q12879 23-1464, other chains not shown): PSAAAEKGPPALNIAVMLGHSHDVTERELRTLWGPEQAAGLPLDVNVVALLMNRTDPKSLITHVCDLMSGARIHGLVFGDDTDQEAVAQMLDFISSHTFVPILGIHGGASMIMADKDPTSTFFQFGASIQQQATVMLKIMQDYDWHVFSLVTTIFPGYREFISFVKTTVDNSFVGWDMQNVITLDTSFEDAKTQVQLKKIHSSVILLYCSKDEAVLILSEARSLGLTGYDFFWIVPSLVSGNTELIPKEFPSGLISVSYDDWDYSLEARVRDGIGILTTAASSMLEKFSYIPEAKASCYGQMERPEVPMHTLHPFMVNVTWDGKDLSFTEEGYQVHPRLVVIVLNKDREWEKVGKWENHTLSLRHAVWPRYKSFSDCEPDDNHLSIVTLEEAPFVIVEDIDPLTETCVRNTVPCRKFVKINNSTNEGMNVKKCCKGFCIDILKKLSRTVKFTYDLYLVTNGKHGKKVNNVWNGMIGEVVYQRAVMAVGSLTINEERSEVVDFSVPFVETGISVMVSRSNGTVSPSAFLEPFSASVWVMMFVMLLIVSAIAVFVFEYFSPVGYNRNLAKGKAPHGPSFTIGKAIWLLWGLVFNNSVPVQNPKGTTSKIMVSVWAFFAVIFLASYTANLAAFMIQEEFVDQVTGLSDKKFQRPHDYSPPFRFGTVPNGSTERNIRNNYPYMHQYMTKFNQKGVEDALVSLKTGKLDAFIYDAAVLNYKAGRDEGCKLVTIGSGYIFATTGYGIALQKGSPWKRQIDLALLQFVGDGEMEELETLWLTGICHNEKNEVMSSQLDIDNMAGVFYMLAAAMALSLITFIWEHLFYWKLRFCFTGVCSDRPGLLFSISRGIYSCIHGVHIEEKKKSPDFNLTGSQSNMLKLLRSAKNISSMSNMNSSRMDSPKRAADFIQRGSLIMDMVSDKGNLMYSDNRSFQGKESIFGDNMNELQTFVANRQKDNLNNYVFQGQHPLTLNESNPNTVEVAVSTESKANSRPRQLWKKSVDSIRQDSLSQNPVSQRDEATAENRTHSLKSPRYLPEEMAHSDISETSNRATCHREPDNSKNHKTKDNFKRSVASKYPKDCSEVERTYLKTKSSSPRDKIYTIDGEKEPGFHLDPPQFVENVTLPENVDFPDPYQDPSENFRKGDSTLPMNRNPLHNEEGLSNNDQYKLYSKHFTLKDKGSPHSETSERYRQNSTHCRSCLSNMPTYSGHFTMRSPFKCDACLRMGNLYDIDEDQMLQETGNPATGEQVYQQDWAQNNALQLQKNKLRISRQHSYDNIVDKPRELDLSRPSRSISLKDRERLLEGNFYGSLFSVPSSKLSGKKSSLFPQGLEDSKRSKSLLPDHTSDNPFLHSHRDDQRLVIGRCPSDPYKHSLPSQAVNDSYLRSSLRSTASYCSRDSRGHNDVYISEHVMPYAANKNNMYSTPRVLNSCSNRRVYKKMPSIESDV

Take `O=C(NC1CCS(=O)(=O)C1)c1ccc(CNS(=O)(=O)c2ccc(F)c(Cl)c2)cn1` (stereo not shown) [5-(3-chloro-4-fluorobenzenesulfon-amidomethyl)-N-(1,1-dioxo-1λ^6-thiolan-3-yl)pyridine-2-carboxamide]: the IC50 under setting [1] was determined as 10 µM and the IC50 (read-out: Binned Activity) was > 10 µM.

In the case of `Cc1ncc(CNC(=O)c2ccc(CNC(=O)c3cccc(Cl)c3C)cn2)s1` [5-{[(3-chloro-2-methylphenyl)formamido]methyl}-N-[(2-methyl-1,3-thiazol-5-yl)methyl]pyridine-2-carboxamide], the IC50 runs as follows: under setting [1], 10 µM; (read-out: Binned Activity) > 10 µM.

On to `Cn1nccc1CNC(=O)c1ccc(CNS(=O)(=O)c2ccc(F)c(Cl)c2)cn1` [5-(3-chloro-4-fluorobenzenesulfon-amidomethyl)-N-[(1-methyl-1H-pyrazol-5-yl)methyl]pyridine-2-carboxamide], for which the IC50 is 10 µM under setting [1] and > 10 µM (read-out: Binned Activity).

`O=C(NCc1ncccc1C(F)(F)F)c1cnc(CNS(=O)(=O)c2ccc(F)c(Cl)c2)cn1` [5-(3-chloro-4-fluorobenzenesulfon-amidomethyl)-N-{[3-(trifluoromethyl)pyridin-2-yl]methyl}pyrazine-2-carboxamide]: the IC50 under setting [1] was found to be 10 µM and the IC50 (read-out: Binned Activity) is > 10 µM.

Turning to `Cc1ncc(CNC(=O)c2cnc(CNS(=O)(=O)c3ccc(F)c(F)c3)cn2)s1` [5-(3,4-difluorobenzenesulfon-amidomethyl)-N-[(2-methyl-1,3-thiazol-5-yl)methyl]pyrazine-2-carboxamide], the IC50 (read-out: Binned Activity) was 0.1 to 1 µM.

In the case of `Cc1ncc(CNC(=O)c2cnc(CNC(=O)c3cccc(C#N)c3)cn2)s1` [5-{[(3-cyanophenyl)formamido]methyl}-N-[(2-methyl-1,3-thiazol-5-yl)methyl]pyrazine-2-carboxamide], the IC50 runs as follows: under setting [1], 10 µM; (read-out: Binned Activity) > 10 µM.

On to `COc1ccccc1CNC(=O)c1ccc(CNS(=O)(=O)c2ccc(F)c(Cl)c2)nc1` [6-(3-chloro-4-fluorobenzenesulfon-amidomethyl)-N-[(2-methoxyphenyl)methyl] pyridine-3-carboxamide], for which the IC50 is 10 µM under setting [1] and > 10 µM (read-out: Binned Activity).

For the compound `COc1cccc(CNC(=O)c2ccc(CNS(=O)(=O)c3ccc(F)c(Cl)c3)cn2)c1` [5-(3-chloro-4-fluorobenzenesulfon-midomethyl)-N-[(3-methoxyphenyl)methyl] pyridine-2-carboxamide], under “read-out: Binned Activity”, the IC50 was in the range of 1 to 10 µM.

Regarding `Cc1ncsc1CNC(=O)c1cnc(CNS(=O)(=O)c2ccc(F)c(Cl)c2)cn1` [5-(3-chloro-4-fluorobenzenesulfon-amidomethyl)-N-[(4-methyl-1,3-thiazol-5-yl)methyl]pyrazine-2-carboxamide], the IC50 under setting [1] was determined as 10 µM and the IC50 (read-out: Binned Activity) is > 10 µM.

On to `CN(C)CCCNC(=O)c1ccc(CNS(=O)(=O)c2ccc(F)c(Cl)c2)nc1` [6-(3-chloro-4-fluorobenzenesulfon-amidomethyl)-N-[3-(dimethylamino)propyl] pyridine-3-carboxamide], for which the IC50 runs as follows: under setting [1], 10 µM; (read-out: Binned Activity) > 10 µM.

On to `Cc1nnc(CNC(=O)c2ccc(CNS(=O)(=O)c3ccc(F)c(Cl)c3)cn2)o1` [5-(3-chloro-4-fluorobenzenesulfon-amidomethyl)-N-[(5-methyl-1,3,4-oxadiazol-2-yl)methyl]pyridine-2-carboxamide], for which the IC50 (read-out: Binned Activity) was in the range of 1 to 10 µM.

As for `Cc1ncc(CNC(=O)c2ccc(CNS(=O)(=O)c3ccc(-c4csnn4)cc3)cn2)s1` [N-[(2-methyl-1,3-thiazol-5-yl)methyl]-5-[4-(1,2,3-thiadiazol-4-yl)benzenesulfonamido-methyl]pyridine-2-carboxamide], the IC50 under setting [1] was found to be 10 µM and the IC50 (read-out: Binned Activity) is > 10 µM.

For the compound `O=C(NCc1cncnc1)c1cnc(CNS(=O)(=O)c2ccc(F)c(Cl)c2)cn1` [5-(3-chloro-4-fluorobenzenesulfon-amidomethyl)-N-(pyrimidin-5-ylmethyl)pyrazine-2-carboxamide], the IC50 (read-out: Binned Activity) lay within 1 to 10 µM.

On to `Cn1cccc1CNC(=O)c1ccc(CNS(=O)(=O)c2ccc(F)c(Cl)c2)nc1` [6-(3-chloro-4-fluorobenzenesulfon-amidomethyl)-N-[(1-methyl-1H-pyrrol-2-yl)methyl]pyridine-3-carboxamide], for which the IC50 is, setting by setting: under setting [1], 10 µM; (read-out: Binned Activity) > 10 µM.

Regarding `Cc1ncsc1CNC(=O)c1ccc(CNS(=O)(=O)c2ccc(F)c(Cl)c2)nn1` [6-(3-chloro-4-fluorobenzenesulfon-amidomethyl)-N-[(4-methyl-1,3-thiazol-5-yl)methyl]pyridazine-3-carboxamide], the IC50 by setting is: under setting [1], 10 µM; (read-out: Binned Activity) > 10 µM.

`Cc1ncc(CNC(=O)c2cnc(CNS(=O)(=O)c3ccccc3F)c(C)n2)s1` [5-(2-fluorobenzenesulfon-amidomethyl)-6-methyl-N-[(2-methyl-1,3-thiazol-5-yl)methyl]pyrazine-2-carboxamide]: the IC50 under setting [1] stood at 10 µM and the IC50 (read-out: Binned Activity) is > 10 µM.

Turning to `Cc1ncc(CNC(=O)c2ccc(CNC(=O)c3cc(Cl)ccc3F)cn2)s1` [5-{[(5-chloro-2-fluorophenyl)formamido]methyl}-N-[(2-methyl-1,3-thiazol-5-yl)methyl]pyridine-2-carboxamide], the IC50 by setting is: under setting [1], 10 µM; (read-out: Binned Activity) > 10 µM.

As for `Cc1nc(C)c(CNC(=O)c2ccc(CNS(=O)(=O)c3ccc(F)c(Cl)c3)cn2)s1` [5-(3-chloro-4-fluorobenzenesulfon-amidomethyl)-N-[(dimethyl-1,3-thiazol-5-yl)methyl]pyridine-2-carboxamide], the IC50 was 10 µM under setting [1] and > 10 µM (read-out: Binned Activity).

On to `Cc1ncc(CNC(=O)c2ccc(CNS(=O)(=O)c3cccc(Cl)c3)cn2)s1` [5-(3-chlorobenzenesulfon-amidomethyl)-N-[(2-methyl-1,3-thiazol-5-yl)methyl]pyridine-2-carboxamide], for which, where the note is “read-out: Binned Activity”, the IC50 was 1 to 10 µM.

On to `Cc1ncc(CNC(=O)c2ccc(CNS(=O)(=O)c3ccc(F)c(Cl)c3)cn2)s1` [5-(3-chloro-4-fluorobenzenesulfon-amidomethyl)-N-[(2-methyl-1,3-thiazol-5-yl)methyl]pyridine-2-carboxamide], for which the IC50 (read-out: Binned Activity) is 0.1 to 1 µM.

For the compound `CN(C)CCCNC(=O)c1ccc(CNS(=O)(=O)c2ccc(F)c(Cl)c2)cn1` [5-(3-chloro-4-fluorobenzenesulfon-amidomethyl)-N-[3-(dimethylamino)propyl] pyridine-2-carboxamide], the IC50 was 10 µM under setting [1] and > 10 µM (read-out: Binned Activity).

For the compound `O=C(NCc1nccs1)c1cnc(CNS(=O)(=O)c2ccc(F)c(Cl)c2)cn1` [5-(3-chloro-4-fluorobenzenesulfon-amidomethyl)-N-(1,3-thiazol-2-ylmethyl)pyrazine-2-carboxamide], the IC50 is 10 µM under setting [1] and > 10 µM (read-out: Binned Activity).

`Cc1cnc(CNC(=O)c2ccc(CNS(=O)(=O)c3ccc(F)c(Cl)c3)nn2)cn1` [6-(3-chloro-4-fluorobenzenesulfon-amidomethyl)-N-[(5-methylpyrazin-2-yl)methyl]pyridazine-3-carboxamide]: the IC50 runs as follows: under setting [1], 10 µM; (read-out: Binned Activity) > 10 µM.

As to `Cc1ncc(CNC(=O)c2ccc(CNC(=O)c3ccc(Cl)c(Cl)c3)cn2)s1` [5-{[(3,4-dichlorophenyl)form-amido]methyl}-N-[(2-methyl-1,3-thiazol-5-yl)methyl]pyridine-2-carboxamide], the IC50 under setting [1] amounted to 10 µM and the IC50 (read-out: Binned Activity) was > 10 µM.

As for `Cc1csc(CNC(=O)c2cnc(CNS(=O)(=O)c3ccc(F)c(Cl)c3)cn2)n1` [5-(3-chloro-4-fluorobenzenesulfon-amidomethyl)-N-[(4-methyl-1,3-thiazol-2-yl)methyl]pyrazine-2-carboxamide], the IC50 under setting [1] came out at 10 µM.

`COc1ccc(CNC(=O)c2ccc(CNS(=O)(=O)c3ccc(F)c(Cl)c3)cn2)cn1` [5-(3-chloro-4-fluorobenzenesulfon-amidomethyl)-N-[(6-methoxypyridin-3-yl)methyl]pyridine-2-carboxamide]: under “read-out: Binned Activity”, the IC50 lay within 1 to 10 µM.

With `Cc1cccc(CNC(=O)c2ccc(CNS(=O)(=O)c3ccc(F)c(Cl)c3)cn2)n1` [5-(3-chloro-4-fluorobenzenesulfon-amidomethyl)-N-[(6-methylpyridin-2-yl)methyl]pyridine-2-carboxamide], the IC50 under setting [1] came to 10 µM and the IC50 (read-out: Binned Activity) was > 10 µM.

Consider `Cc1ncc(CNC(=O)c2cnc(CNS(=O)(=O)c3ccc(Cl)c(Cl)c3)c(C)n2)s1` [5-(3,4-dichlorobenzenesulfon-amidomethyl)-6-methyl-N-[(2-methyl-1,3-thiazol-5-yl)methyl]pyrazine-2-carboxamide], for which, where the note is “read-out: Binned Activity”, the IC50 lay in the range of 0.1 to 1 µM.

For `Cc1ncc(CNC(=O)c2cnc(CNS(=O)(=O)c3cccc(Cl)c3)c(C)n2)s1` [5-(3-chlorobenzenesulfon-midomethyl)-6-methyl-N-[(2-methyl-1,3-thiazol-5-yl)methyl]pyrazine-2-carboxamide], for the setting “read-out: Binned Activity”, the IC50 was < 0.1 µM.

As for `O=C(NCc1cnccn1)c1ccc(CNS(=O)(=O)c2ccc(F)c(Cl)c2)nc1` [6-(3-chloro-4-fluorobenzenesulfon-amidomethyl)-N-(pyrazin-2-ylmethyl)pyridine-3-carboxamide], the IC50 (read-out: Binned Activity) lay in the range of 0.1 to 1 µM.
